Patent publication US20250346602A1, “LACTAM SUBSTITUTED IMIDAZOPYRIDAZINE IL-17A MODULATORS AND USES THEREOF” (DICE ALPHA, INC., priority 2022, published 2025)

Biological target: T1, IL-17A/A (Homo sapiens, UniProt Q16552)
T1 construct: purchased Genscript Z03228
T1 sequence (Q16552 24-155): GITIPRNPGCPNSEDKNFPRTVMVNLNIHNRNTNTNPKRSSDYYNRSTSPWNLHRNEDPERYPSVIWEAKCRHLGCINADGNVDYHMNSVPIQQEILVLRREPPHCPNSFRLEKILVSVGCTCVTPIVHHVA
Experiment: IL-17A/A HEK-Blue cell assay
Format: cell-based
Conditions: HEK-Blue IL-17A reporter cell line (HEK 293), IL-17A/A stimulation, 20 hours incubation, SEAP read at A630
Procedure: The HEK-Blue IL-17A reporter cell line (Fisher #NC1408637) was used for cell-based IL-17A/A inhibition assays. Cells were grown and prepared for assays according to the manufacturer's instructions. This cell line consists of HEK 293 cells that were designed to expressed IL-17RA, IL-17RC, and the ActI adapter molecule, the combination of which, when stimulated by IL-17A/A activates a NFκB promoter and drives expression of a recombinant Secreted Alkaline Phosphatase (SEAP) gene protein. Media from the cells is then added to a development reagent (Quanti-Blue Substrate, Fisher #NC9711613), and read at A630.
Compounds were titrated in DMSO, with a top final compound concentration of 10 uM, 1 uM, or 0.3 uM, and added to the cells immediately before adding IL-17A/A (Genscript #Z03228). The cells, compound, and IL-17A/A were then incubated for 20 hours before media was removed for SEAP analysis. The resulting inhibition curve was then analyzed using Graphpad Prism 7.0, and IC50 values were determined using a 4-parameter nonlinear fit. DMSO was added to a universal final concentration of 0.1% to optimize background.

## CCn1nccc1C(=O)NC(c1cn2nc(CC3CC(F)(F)CNC3=O)ccc2n1)C1CCCC(F)(F)C1 (mixture of isomers) [Compound 32, N-((6-((5,5-difluoro-2-oxopiperidin-3-yl)methyl)imidazo[1,2-b]pyridazin-2-yl)(3,3-difluorocyclohexyl)methyl)-1-ethyl-1H-pyrazole-5-carboxamide]
  IC50: 100 to 1000 nM

## CCn1nccc1C(=O)N[C@H](c1cn2nc(CC3CC(C)(F)CNC3=O)ccc2n1)C(C1CC1)C1CC1 (mixture of isomers) [Compound 40, N-((1S)-2,2-dicyclopropyl-1-(6-((5-fluoro-5-methyl-2-oxopiperidin-3-yl)methyl)imidazo[1,2-b]pyridazin-2-yl)ethyl)-1-ethyl-1H-pyrazole-5-carboxamide]
  IC50: > 1000 nM

## CCn1nccc1C(=O)N[C@H](c1cn2nc(CC3CC(C(F)F)CNC3=O)ccc2n1)C(C1CC1)C1CC1 (mixture of isomers) [Compound 41, N-((1S)-2,2-dicyclopropyl-1-(6-((5-(difluoromethyl)-2-oxopiperidin-3-yl)methyl)imidazo[1,2-b]pyridazin-2-yl)ethyl)-1-ethyl-1H-pyrazole-5-carboxamide]
  IC50: > 1000 nM

## CCn1nccc1C(=O)N[C@H](c1cn2ncc(CC3CCCNC3=O)cc2n1)C1CCCCCC1 (mixture of isomers) [Compound 206, N-((1S)-cycloheptyl(7-((2-oxopiperidin-3-yl)methyl)imidazo[1,2-b]pyridazin-2-yl)methyl)-1-ethyl-1H-pyrazole-5-carboxamide]
  IC50: > 1000 nM

## CCn1nccc1C(=O)N[C@H](c1cn2ncc(CC3C[C@@H](C(F)(F)F)NC3=O)cc2n1)C1CCCCCC1 (mixture of isomers) [Compound 207, N-((l S)-cycloheptyl(7-(((5S)-2-oxo-5-(trifluoromethyl)pyrrolidin-3-yl)methyl)imidazo[1,2-b]pyridazin-2-yl)methyl)-1-ethyl-1H-pyrazole-5-carboxamide]
  IC50: < 100 nM

## CCn1nccc1C(=O)N[C@H](c1cn2nc(CC3CCNC3=O)ccc2n1)C1CCC(F)(F)CC1 (single isomer, unassigned) [Compound 1]
  IC50: > 1000 nM

## CCn1nccc1C(=O)N[C@H](c1cn2nc(CC3CCNC3=O)ccc2n1)C1CCCCCC1 (single isomer, unassigned) [Compound 4]
  IC50: 100 to 1000 nM

## CCn1nccc1C(=O)N[C@H](c1cn2nc(CC3C[C@@H](C(F)(F)F)NC3=O)ccc2n1)C1CCCCCC1 (single isomer, unassigned) [Compound 5]
  IC50: < 100 nM

## CCn1nccc1C(=O)N[C@H](c1cn2nc(CC3C[C@@H](C(F)(F)F)NC3=O)ccc2n1)C1CCCCCC1 (single isomer, unassigned) [Compound 6]
  IC50: > 1000 nM

## CCn1nccc1C(=O)N[C@H](c1cn2nc(CC3C[C@@H](C(F)(F)F)NC3=O)ccc2n1)C(C1CC1)C1CC1 (single isomer, unassigned) [Compound 8]
  IC50: 100 to 1000 nM

## CCn1nccc1C(=O)N[C@H](c1cn2nc(CC3CC(F)(F)CNC3=O)ccc2n1)C1CCCCCC1 (single isomer, unassigned) [Compound 9, N-((1 S)-cycloheptyl(6-((5,5-difluoro-2-oxopiperidin-3-yl)methyl)imidazo[1,2-b]pyridazin-2-yl)methyl)-1-ethyl-1H-pyrazole-5-carboxamide]
  IC50: < 100 nM

## CCn1nccc1C(=O)N[C@H](c1cn2nc(CC3CC(F)(F)CNC3=O)ccc2n1)C1CCCCCC1 (single isomer, unassigned) [Compound 10, N-((1 S)-cycloheptyl(6-((5,5-difluoro-2-oxopiperidin-3-yl)methyl)imidazo[1,2-b]pyridazin-2-yl)methyl)-1-ethyl-1H-pyrazole-5-carboxamide]
  IC50: 100 to 1000 nM

## CCn1nccc1C(=O)N[C@H](c1cn2nc(CC3CCCNC3=O)ccc2n1)C1CCCCCC1 (single isomer, unassigned) [Compound 11]
  IC50: > 1000 nM

## CCn1nccc1C(=O)N[C@H](c1cn2nc(CC3CCCNC3=O)ccc2n1)C1CCCCCC1 (single isomer, unassigned) [Compound 12]
  IC50: < 100 nM

## CCn1nccc1C(=O)N[C@H](c1cn2nc(CC3CCCNC3=O)ccc2n1)C1CCC(F)(F)CC1 (single isomer, unassigned) [Compound 13, N-((1 S)-(4,4-difluorocyclohexyl)(6-((2-oxopiperidin-3-yl)methyl)imidazo[1,2-b]pyridazin-2-yl)methyl)-1-ethyl-1H-pyrazole-5-carboxamide]
  IC50: 100 to 1000 nM

## Cc1nonc1C(=O)N[C@H](c1cn2nc(CC3CCNC3=O)ccc2n1)C1CCCCCC1 (single isomer, unassigned) [Compound 14, N-((1 S)-cycloheptyl(6-((2-oxopyrrolidin-3-yl)methyl)imidazo[1,2-b]pyridazin-2-yl)methyl)-4-methyl-1,2,5-oxadiazole-3-carboxamide]
  IC50: 100 to 1000 nM

## CCn1nccc1C(=O)N[C@H](c1cn2nc(CC3C[C@@H](C(F)(F)F)NC3=O)ccc2n1)C(C1CC1)C1CC1 (single isomer, unassigned) [Compound 15]
  IC50: > 1000 nM

## CCn1nccc1C(=O)N[C@H](c1cn2nc(CC3C[C@@H](C(F)(F)F)NC3=O)ccc2n1)[C@H]1CC[C@H](C)CC1 (single isomer, unassigned) [Compound 16]
  IC50: 100 to 1000 nM

## O=C(N[C@H](c1cn2nc(C[C@H]3C[C@@H](C(F)(F)F)NC3=O)ccc2n1)C1CCC(F)(F)CC1)c1nonc1C1CC1 (single isomer, unassigned) [Compound 19]
  IC50: 100 to 1000 nM

## CCn1nccc1C(=O)N[C@H](c1cn2nc(CC3C[C@H](C(F)(F)F)NC3=O)ccc2n1)C1CCC(F)(F)CC1 (single isomer, unassigned) [Compound 23]
  IC50: > 1000 nM

## CCn1nccc1C(=O)N[C@H](c1cn2nc(CC3CC(F)(F)CNC3=O)ccc2n1)C1CCC(F)(F)CC1 (single isomer, unassigned) [Compound 24]
  IC50: > 1000 nM

## CCn1nccc1C(=O)N[C@H](c1cn2nc(CC3CC(F)(F)CNC3=O)ccc2n1)C1CCC(F)(F)CC1 (single isomer, unassigned) [Compound 25]
  IC50: 100 to 1000 nM

## CCn1nccc1C(=O)NC(c1cn2nc(CC3CC(F)(F)CNC3=O)ccc2n1)C1CCC(C)CC1 (single isomer, unassigned) [Compound 26]
  IC50: 100 to 1000 nM

## CCn1nccc1C(=O)NC(c1cn2nc(CC3CC(F)(F)CNC3=O)ccc2n1)C1CCC(C)CC1 (single isomer, unassigned) [Compound 27]
  IC50: 100 to 1000 nM

## CCn1nccc1C(=O)N[C@H](c1cn2nc(CC3CC(F)(F)CNC3=O)ccc2n1)C(C1CC1)C1CC1 (single isomer, unassigned) [Compound 28]
  IC50: 100 to 1000 nM

## CCn1nccc1C(=O)N[C@H](c1cn2nc(CC3CC(F)(F)CNC3=O)ccc2n1)C(C1CC1)C1CC1 (single isomer, unassigned) [Compound 29]
  IC50: > 1000 nM

## CC[C@@H](c1ccc(F)cc1)C(NC(=O)c1ccnn1CC)c1cn2nc(CC3CC(F)(F)CNC3=O)ccc2n1 (single isomer, unassigned) [Compound 30]
  IC50: 100 to 1000 nM

## CC[C@@H](c1ccc(F)cc1)C(NC(=O)c1ccnn1CC)c1cn2nc(CC3CC(F)(F)CNC3=O)ccc2n1 (single isomer, unassigned) [Compound 31]
  IC50: 100 to 1000 nM

## CCn1nccc1C(=O)N[C@H](c1cn2nc(C[C@@H]3CCCNC3=O)ccc2n1)C(C1CC1)C1CC1 (single isomer, unassigned) [Compound 33]
  IC50: 100 to 1000 nM

## CCn1nccc1C(=O)N[C@H](c1cn2nc(C[C@H]3CCCNC3=O)ccc2n1)C(C1CC1)C1CC1 (single isomer, unassigned) [Compound 34]
  IC50: > 1000 nM

## CCn1nccc1C(=O)N[C@H](c1cn2nc(CC3CCC(C(F)(F)F)NC3=O)ccc2n1)C(C1CC1)C1CC1 (single isomer, unassigned) [Compound 42]
  IC50: > 1000 nM

## CCn1nccc1C(=O)N[C@H](c1cn2nc(CC3CCC(C(F)(F)F)NC3=O)ccc2n1)C(C1CC1)C1CC1 (single isomer, unassigned) [Compound 43]
  IC50: > 1000 nM

## CCn1nccc1C(=O)N[C@H](c1cn2nc(CC3C(=O)NCC3C(F)(F)F)ccc2n1)C(C1CC1)C1CC1 (single isomer, unassigned) [Compound 44]
  IC50: 100 to 1000 nM

## CCn1nccc1C(=O)N[C@H](c1cn2nc(CC3C(=O)NCC3C(F)(F)F)ccc2n1)C(C1CC1)C1CC1 (single isomer, unassigned) [Compound 45]
  IC50: > 1000 nM

## CCn1nccc1C(=O)N[C@H](c1cn2nc(CC3C(=O)NCC3C(F)(F)F)ccc2n1)C(C1CC1)C1CC1 (single isomer, unassigned) [Compound 46]
  IC50: > 1000 nM

## CCn1nccc1C(=O)NC(c1cn2nc(CC3C(=O)NCC4CC43)ccc2n1)C1CCC(C)CC1 (single isomer, unassigned) [Compound 47]
  IC50: > 1000 nM

## CCn1nccc1C(=O)NC(c1cn2nc(CC3C(=O)NCC4CC43)ccc2n1)C1CCC(C)CC1 (single isomer, unassigned) [Compound 48]
  IC50: 100 to 1000 nM

## CCn1nccc1C(=O)NC(c1cn2nc(CC3CC(C)CNC3=O)ccc2n1)C1CCC(C)CC1 (single isomer, unassigned) [Compound 49]
  IC50: 100 to 1000 nM

## CCn1nccc1C(=O)NC(c1cn2nc(CC3CC(C)CNC3=O)ccc2n1)C1CCC(C)CC1 (single isomer, unassigned) [Compound 50]
  IC50: > 1000 nM
